From PubChem BioAssay AID1996 come the findings set out here.

The structures appear in SMILES notation. ≈ marks a conversion by molar mass, not a printed value. Some results are limits rather than exact numbers.

For the series the following is noted: buffer; pH 7.4; 200.0 µM.
`O=C(Nc1ccc([N+](=O)[O-])cc1)N1CCCCCC1` gave a solubility (kinetic) greater than 39.5 µg/mL.
Take `CC(C)c1cccc(C(C)C)c1NC(=O)CN1CCCC1`: the kinetic solubility was greater than 43.3 µg/mL.
As for `Cc1ccc(S(=O)(=O)c2c(C)cc(C)[nH]c2=O)cc1`, the figure is greater than 41.6 µg/mL; as for `Cl.c1ccc2c(c1)CC(N1CCCCC1)c1ccccc1S2` (stereo unspecified), 1.8 µg/mL; as for `O=C(CNC(=O)c1ccc(Cl)cc1)N/N=C/c1cccnc1`, greater than 47.5 µg/mL.
As for `Cc1ccc(-c2nc3ncccc3n2O)cc1`, the figure is greater than 33.8 µg/mL; as for `COc1ccccc1NC(=S)NCc1ccc(F)cc1`, 34 µg/mL (≈ 117 µM); as for `O=C(CCN1CCN(c2ccccc2)CC1)Nc1ccccc1`, 40.9 µg/mL (≈ 132 µM).
For `Cc1cc(C)c(NC(=S)N(C)C)c(C)c1` the value was greater than 33.4 µg/mL; for `NC(=O)c1ccc(NC(=O)CN2CCOCC2)cc1`, 35.6 µg/mL (≈ 135 µM); for `COc1ccc(NC(=O)COC(=O)CCSc2ccccc2)cc1OC`, 55.5 µg/mL (≈ 148 µM).
Compound `COc1cc2c(cc1OC)C(COc1ccc(F)cc1)NCC2` (stereo unspecified) displayed a solubility (kinetic) of 43.8 µg/mL (≈ 138 µM).
For `Cc1ccc2[nH]cc(S(=O)(=O)c3ccc(F)cc3)c(=O)c2c1` the value was 5.5 µg/mL (≈ 17.3 µM).
For `COc1ccccc1CNC(=O)C1CCCC1` the value was greater than 35 µg/mL; for `CCc1sc(C(=O)Nc2ccc(OC)c(S(=O)(=O)N3CCOCC3)c2)cc1C`, 22.9 µg/mL (≈ 53.9 µM); for `COCc1c(C(=O)OCc2c(C)noc2C)oc2ccccc12`, 33.2 µg/mL (≈ 105 µM).
The compound `Cc1cc(C(=O)Nc2ccc3c(c2)OCCO3)ccc1[N+](=O)[O-]` showed a solubility (kinetic) of less than 0.3 µg/mL.
As for `CC1CCN(S(=O)(=O)c2ccc(NC(=O)C3CC3)cc2)CC1`, the figure is 37.2 µg/mL (≈ 115 µM); as for `COc1ccc(Cl)cc1N1C(=O)CC(Sc2ccccc2N)C1=O` (stereo unspecified), less than 0.4 µg/mL.
Consider `CCOC(=O)C1=C(C)OC(N)=C(C#N)C1c1cccs1` (stereo unspecified), for which the solubility (kinetic) came to 17.1 µg/mL (≈ 58.9 µM).
With `CC(=O)c1ccc(OCC(=O)OC(C)C(=O)NC2CCCCC2)cc1` (stereo unspecified), the solubility (kinetic) was greater than 52.1 µg/mL.
For `Cc1ccc(C(=O)NCCCNC(=O)COc2ccccc2Cl)cn1` the value was greater than 54.3 µg/mL; for `CCOC(=O)c1nc(-c2ccc(OC)c(OC)c2)no1`, 40.8 µg/mL (≈ 147 µM).
As for `Cc1ccc(NCc2nc3ccccc3n2C)cc1C`, the figure is 22.1 µg/mL (≈ 83.3 µM); as for `O=S(=O)(Nc1ccc(Br)cn1)c1ccc2ccccc2c1`, 1.3 µg/mL (≈ 3.58 µM); as for `COc1ccc(S(=O)(=O)N2CCN(C(=O)c3cc(C)nc4ccccc34)CC2)cc1OC`, greater than 68.3 µg/mL.
As for `O=C(CN1CCOCC1)Nc1cc([N+](=O)[O-])ccc1Cl`, the figure is 9.8 µg/mL (≈ 32.7 µM).
In the case of `CCCC(=O)N/C(N)=N/c1nc(C)c2ccccc2n1`, the kinetic solubility turned out to be 15.3 µg/mL (≈ 56.4 µM).
As for `CN(C)C(CNC(=O)C1CCCN1C(=O)c1cccs1)c1ccccc1` (stereo unspecified), the figure is greater than 55.7 µg/mL.
For `Cc1cccc(N=Cc2c(O)n(C)c(=O)n(C)c2=O)c1` the value was 10 µg/mL (≈ 36.6 µM).
As for `O=c1c2ccccc2[nH]c(=S)n1-c1ccc2c(c1)OCCO2`, the figure is 4.5 µg/mL (≈ 14.4 µM); as for `Cc1cc(C(=O)Nc2ccc([N+](=O)[O-])cn2)cs1`, 6.2 µg/mL (≈ 23.5 µM).
Take `NS(=O)(=O)c1ccc(NC(=O)c2cccc(Cl)c2)cc1`: the kinetic solubility is 10 µg/mL (≈ 32.2 µM).
As for `CC(NC(=O)CSc1ncccn1)c1ccc2c(c1)OCO2` (stereo unspecified), the figure is greater than 47.6 µg/mL; as for `O=C(O)C1CC=CCC1C(=O)NCc1ccc(Cl)c(Cl)c1` (stereo unspecified), greater than 49.2 µg/mL; as for `CC(=O)c1ccc(S(=O)(=O)N2CCNCC2)cc1.Cl`, 45.5 µg/mL.
For `CCCc1nc(-c2cc3ccccc3[nH]c2=O)no1` the value was greater than 38.3 µg/mL.
As for `N#Cc1cc([N+](=O)[O-])ccc1NC(=O)CSc1n[nH]c(=O)[nH]c1=O`, the figure is greater than 52.2 µg/mL; as for `COc1cc(CCC(C)NCc2ccccc2)ccc1O` (stereo unspecified), greater than 42.8 µg/mL; as for `Cc1cnc(C(=O)OCC(=O)Nc2cc(S(=O)(=O)N3CCOCC3)ccc2Cl)cn1`, greater than 68.2 µg/mL.
With `c1ccc(N2CCN(Cc3ccc4c(c3)OCO4)CC2)nc1`, the solubility (kinetic) stood at 32.1 µg/mL (≈ 108 µM).
For `CCN(CC)CCSc1nc2ccc(OC)cc2[nH]1.Cl` the value was greater than 52.8 µg/mL; for `Cc1ccc(CC(=O)NCCCn2ccnc2)cc1`, greater than 38.6 µg/mL.
For `Cc1nc(C)c(C(=O)Nc2cccc(C)c2C)s1` the value was greater than 39.1 µg/mL; for `O=C1CCC(=O)N1CCSC(=S)N1CCOCC1`, greater than 43.3 µg/mL; for `Nc1ncnc(Nc2ccccc2)n1`, greater than 28.1 µg/mL.
As for `COCC(=O)Nc1ccc2c(c1)OCC(=O)N2Cc1ccc(C)cc1`, the figure is 20.9 µg/mL (≈ 61.4 µM); as for `COc1ccc(CC(=O)NCCCc2ccccc2)cc1OC`, greater than 47 µg/mL.
As for `COc1cc(OC)cc(-c2nc(-c3cccs3)no2)c1`, the kinetic solubility is less than 0.3 µg/mL.
In turn, `O=C(COc1ccc(Cl)cc1)NCc1ccccc1` displayed a kinetic solubility of 25.6 µg/mL (≈ 92.8 µM).
For `CCCOc1ccc(NC(=O)CCC(=O)NC(C)c2ccccc2)cc1` (stereo unspecified) the value was 0.5 µg/mL (≈ 1.41 µM); for `CCc1ccc(/C=C/c2c([N+](=O)[O-])c(=O)n(C)c(=O)n2C)cc1`, 7.6 µg/mL (≈ 24.1 µM).
For `Cc1ccccc1NC(=O)COC(=O)CC1CCCC1` the value was greater than 41.3 µg/mL; for `Cc1ccc(-c2csc3ncn(CC(=O)O)c(=O)c23)cc1C`, greater than 47.2 µg/mL; for `COc1cccc(N=C(N)N=C(N)N)c1`, 25.6 µg/mL (≈ 124 µM).
For the compound `O=C(CCNC(=O)c1ccco1)NCc1ccc(F)cc1`, the kinetic solubility was greater than 43.5 µg/mL.
For `Cc1ccc2c(c1)C1C[N+](C)(CC(=O)Nc3ccccc3Cl)CCC1N2C(=O)c1ccccc1Cl.[Cl-]` (stereo unspecified) the value was greater than 81.7 µg/mL.
As for `CC(=O)Nc1ccc2oc(-c3ccccc3)nc2c1`, the figure is 13.1 µg/mL (≈ 51.9 µM).
As for `CCNS(=O)(=O)c1ccc(CCC(=O)N2CCCC2)cc1`, the figure is greater than 46.6 µg/mL.
In the case of `O=C(Nc1ccc(O)cc1)c1ccc(NC(=O)c2cccs2)cc1`, the kinetic solubility came out at 0.8 µg/mL (≈ 2.36 µM).
For `O=S(=O)(c1ccc(Br)cc1)N1CCCC1` the value was 41.5 µg/mL (≈ 143 µM); for `COc1ccc(OC(C)C(=O)NC(C)c2ccccc2)cc1` (stereo unspecified), greater than 44.9 µg/mL; for `CCC(=O)c1ccc(OCC(=O)OCC(=O)Nc2ccc3c(c2)OCCO3)cc1`, 18.8 µg/mL (≈ 47.1 µM).
Compound `O=C(COc1ccccc1Cl)NCCNC(=O)c1cccnc1` displayed a kinetic solubility greater than 50.1 µg/mL.
`COC(=O)c1cc(S(=O)(=O)N(C)C2CCCCC2)cn1C` came in with a solubility (kinetic) of 45 µg/mL (≈ 143 µM).
For `C=CCNC(=S)N1CCOCC1` the value was greater than 27.9 µg/mL; for `COc1ccc(CN2CCCCCC2)cc1`, 26.2 µg/mL (≈ 119 µM); for `Nc1ccccc1S(=O)(=O)NCCCCc1ccccc1`, 28.7 µg/mL (≈ 94.3 µM).
For `CCN(CC(=O)Nc1ccc(OC(F)F)cc1)C1CCCCC1` the value was 33.1 µg/mL (≈ 101 µM); for `CN1CCN(C(=O)c2cc3sc4ccccc4c3s2)CC1`, greater than 47.5 µg/mL.
With `CCOC(=O)c1ccc(Nc2ncccc2[N+](=O)[O-])cc1`, the solubility (kinetic) is 1 µg/mL (≈ 3.48 µM).
Take `CC(=O)Cc1nsc(NC(=O)c2ccc(Cl)cc2Cl)n1`: the solubility (kinetic) is greater than 49.5 µg/mL.
As for `O=C(CCc1ccncc1)N1CCCC(Nc2ccc(F)cc2)C1` (stereo unspecified), the figure is 45.6 µg/mL (≈ 139 µM); as for `C=C(C)CN1C(=O)C2(OCCO2)c2cc(Br)ccc21`, 41.1 µg/mL (≈ 127 µM); as for `COC(=O)c1ccccc1NC(=O)c1ccc2c(c1)OCCCO2`, 4.1 µg/mL (≈ 12.5 µM).
As for `O=C(CCc1nc2ccccc2s1)Nc1cccnc1`, the figure is 32.6 µg/mL (≈ 115 µM).
For `CCOC(=O)c1ccc(NC(=O)c2ccc[n+]([O-])c2)cc1` the value was greater than 42.9 µg/mL; for `Cc1ccc(OCCSc2nc3ncnc(N)c3[nH]2)cc1`, 3.8 µg/mL (≈ 12.6 µM).
In turn, `NC(=O)c1cc(-c2ccncc2)nc2ccc(Cl)cc12` came in with a solubility (kinetic) of 37 µg/mL (≈ 130 µM).
As for `CCOC(=O)c1c(O)cc(C)cc1Nc1ccccc1`, the figure is less than 0.6 µg/mL; as for `CCc1cccc(NC(=S)N(CCOC)C(C)c2ccco2)c1` (stereo unspecified), 7.9 µg/mL (≈ 23.8 µM); as for `O=S(=O)(c1ccc2oc(=S)[nH]c2c1)N1CCCCC1`, greater than 44.8 µg/mL.
For `Nc1ncnc(Nc2cccc(F)c2)n1` the value was 30.6 µg/mL (≈ 149 µM); for `Cc1ccc(NC(=O)OCc2cncs2)cc1`, greater than 37.2 µg/mL; for `c1csc(-c2nc(CN3CCSCC3)cs2)c1`, 32.8 µg/mL (≈ 116 µM).
As for `Cc1cccc(N2CCCn3c2nc2c3c(=O)[nH]c(=O)n2C)c1`, the figure is greater than 46.7 µg/mL.
Take `O=C1NC(=Nc2ccccc2Cl)S/C1=C\c1cccc([N+](=O)[O-])c1`: the solubility (kinetic) was 4.2 µg/mL (≈ 11.7 µM).
As for `COc1ccccc1OCC#CCSc1ncccn1`, the figure is greater than 43 µg/mL; as for `O=C(COC(=O)c1cncc(Br)c1)NC12CC3CC(CC(C3)C1)C2`, 1.4 µg/mL (≈ 3.56 µM); as for `O=[N+]([O-])c1c(NCc2ccco2)ccc2nonc12`, 38.4 µg/mL (≈ 148 µM).
For `CC1CCCN(C(=O)COC(=O)c2cc(Br)ccc2O)C1` (stereo unspecified) the value was 40.1 µg/mL (≈ 113 µM); for `O=C(COC(=O)/C=C/c1ccco1)NC1CCCCC1`, 16.3 µg/mL (≈ 58.8 µM).
The compound `CC(=O)Nc1nc2cccc([N+](=O)[O-])c2s1` returned a kinetic solubility of 2.8 µg/mL (≈ 11.8 µM).
As for `CN1CCN(C(=S)C(=O)NCc2ccccc2)CC1`, the figure is greater than 41.6 µg/mL; as for `Cc1cccc(-n2cnc(C(=O)N3CCN(C)CC3)c2)n1`, greater than 42.8 µg/mL.
Compound `CC(=O)Nc1c(F)cc(Br)cc1F` had a solubility (kinetic) greater than 37.5 µg/mL.
The compound `Cn1nccc1C(=O)N1CCN(c2ccccc2Cl)CC1` showed a kinetic solubility greater than 45.7 µg/mL.
Take `COc1ccc(C2/C(=C(/O)c3ccc(F)cc3)C(=O)C(=O)N2CCCN2CCOCC2)cc1OC` (stereo unspecified): the kinetic solubility is greater than 72.7 µg/mL.
For `Cc1cccc(C)c1Nc1c(-c2ccccc2O)nc2ncccn12` the value was 0.4 µg/mL (≈ 1.21 µM); for `CCOc1ccc(C(=O)NCCNC(=O)c2ccc(OCC)cc2)cc1`, 1.5 µg/mL (≈ 4.21 µM); for `CCOC(=O)c1sc(NC(=O)CC)c(C#N)c1C`, 1.4 µg/mL (≈ 5.26 µM).
For `COCCNC(=O)CN1CCCCCC1.Cl` the value was 34.8 µg/mL; for `Cc1ccccc1OCC(=O)Nc1ccc2c(c1)n(C)c(=O)n2C`, 46.2 µg/mL (≈ 142 µM).
`O=C(NCCCNC(=O)c1ccco1)c1ccc(F)cc1` had a solubility (kinetic) of 42.7 µg/mL (≈ 147 µM).
For `CCc1ccccc1Cn1c(=O)oc2cccnc21` the value was greater than 38.1 µg/mL; for `CC(=O)NCCc1ccc(C(=O)COC(=O)c2cc(C)oc2C)cc1`, greater than 51.5 µg/mL.
